Results reported in PubChem BioAssay (NCI).
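1) Cells in 96-well plates. 2) Compound, 48 h, 5 concentrations. 3) Linear interpolation between surrounding doses. 4) Unreached endpoint = highest concentration. TGI is the concentration that stops growth completely.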

What was measured:
Test in all cases: growth of human tumour cells (NCI), 48 h
[1] = system: TK-10 renal
[2] = system: SN12C renal
[3] = system: RPMI-8226 leukemia
[4] = system: IGROV1 ovarian
[5] = system: OVCAR-4 ovarian
[6] = system: UACC-62 melanoma
[7] = system: T-47D breast
[8] = system: COLO 205 colon
[9] = system: HT29 colon
[10] = system: MCF7 breast
[11] = system: HCC-2998 colon
[12] = system: OVCAR-3 ovarian
[13] = system: ACHN renal
[14] = system: SW-620 colon
[15] = system: SF-268 CNS
[16] = system: HOP-92 NSCLC
[17] = system: PC-3 prostate
[18] = system: 786-0 renal
[19] = system: HOP-62 NSCLC
[20] = system: NCI-H460 lung
[21] = system: MOLT-4 leukemia
[22] = system: NCI/ADR-RES ovarian
[23] = system: MDA-MB-435
[24] = system: CAKI-1 renal
[25] = system: SK-OV-3 ovarian
[26] = system: SNB-19 CNS
[27] = system: NCI-H23 lung
[28] = system: SF-295 CNS
[29] = system: SK-MEL-2 melanoma
[30] = system: MALME-3M melanoma
[31] = system: MDA-MB-231 breast
[32] = system: EKVX NSCLC
[33] = system: A549 NSCLC
[34] = system: K-562 leukemia
[35] = system: NCI-H522 lung
[36] = system: MDA-N
[37] = system: SK-MEL-5 melanoma
[38] = system: SF-539 CNS
[39] = system: SK-MEL-28 melanoma
[40] = system: KM12 colon
[41] = system: UACC-257 melanoma
[42] = system: A498 renal
[43] = system: UO-31 renal
[44] = system: U251 CNS
[45] = system: OVCAR-8 ovarian
[46] = system: DU-145 prostate
[47] = system: HCT-116 colon
[48] = system: SR leukemia
[49] = system: HCT-15 colon
[50] = system: NCI-H226 lung
[51] = system: RXF 393 renal
[52] = system: CCRF-CEM leukemia
[53] = system: HL-60(TB) leukemia
[54] = system: BT-549 breast
[55] = system: OVCAR-5 ovarian
[56] = system: M14 melanoma
[57] = system: LOX IMVI melanoma

Measured: TGI

CCCCCCc1cc(C=O)sc1-c1ccc(-c2sc(-c3ccc(-c4ccc(-c5cc(CCCCCC)c(-c6ccc(-c7sc(C=O)cc7CCCCCC)s6)s5)s4)s3)cc2CCCCCC)s1
> 100 µM: all assays above
